Results on 27 compounds are retold here after patent US4134792A, “Specific binding assay with an enzyme modulator as a labeling substance” (Miles Laboratories, Inc., priority 1976, dated 1979).

The test system of assay [1] is glutamate dehydrogenase. Further details: key: inhibitory or negative effectors are indicated by (-); stimulatory or positive effectors are indicated by (+). The note with it: beef liver; cited from earlier work.
The subject of assay [2] is nicotinamide adenine dinucleotide (NAD)-isocitric dehydrogenase. Further details: key: inhibitory or negative effectors are indicated by (-); stimulatory or positive effectors are indicated by (+). The note with it: N. crassa; cited from earlier work.
In assay [3] the test system is UDP-N-acetyl-glucosamine-2-epimerase. Further details: key: inhibitory or negative effectors are indicated by (-); stimulatory or positive effectors are indicated by (+). The note with it: rat liver; cited from earlier work.
The subject of assay [4] is carbonic anhydrase. The assay is described as follows: Direct binding assay for avidin; competitive binding assay for biotin; carbonic anhydrase esterase readout (Example 4). It counts as biochemical, human. From the text: (§1) Further dilutions were with water.
The results of reaction mixtures 2 through 9 are presented in graphical form in FIG. 2 of the drawing.

Assay [5] deals with uricase. Conditions: approximation; competitive inhibitor; read-out: inhibitor constant (Ki); cited from earlier work.
The subject of assay [6] is deoxythymidine kinase. Further details: key: inhibitory or negative effectors are indicated by (-); stimulatory or positive effectors are indicated by (+). The note with it: E. coli; cited from earlier work.
The subject of assay [7] is biosynthetic L-threonine deaminase. Also noted: key: inhibitory or negative effectors are indicated by (-); stimulatory or positive effectors are indicated by (+). Conditions: E. coli K12 and yeast; cited from earlier work.
Assay [8] deals with homoserine dehydrogenase. Further details: key: inhibitory or negative effectors are indicated by (-); stimulatory or positive effectors are indicated by (+). The note with it: R. rubrum; cited from earlier work.
In assay [9] the test system is aspartate transcarbamylase. Further details: key: inhibitory or negative effectors are indicated by (-); stimulatory or positive effectors are indicated by (+). Conditions: E. coli; cited from earlier work.
Assay [10] concerns phosphofructokinase. The note with it: guinea pig heart; cited from earlier work.
The test system of assay [11] is phosphorylase b. Further details: key: inhibitory or negative effectors are indicated by (-); stimulatory or positive effectors are indicated by (+). The note with it: rabbit muscle; cited from earlier work.
The subject of assay [12] is acetylcholinesterase. The note with it: cited from earlier work; for inhibition of acetylcholinesterase (in words): effective analogs of listed inhibitors.
For assay [13], the system named is deoxycytidylate aminohydrolase. Also noted: key: inhibitory or negative effectors are indicated by (-); stimulatory or positive effectors are indicated by (+). Conditions: ass spleen; cited from earlier work.
In assay [14] the test system is carbonic anhydrase. Briefly: Esterase activities of carbonic anhydrase as a function of acetazolamide concentration (Example 2). The assay is classed as biochemical, human. Conditions: for Hydrolysis Rate: pH 7.4, enzyme 0.013 IU.
In assay [15] the test system is carbonic anhydrase. The assay is described as follows: Competitive binding assay for dinitrophenyl (DNP) derivatives; carbonic anhydrase esterase readout (Example 5). The note with it: for effect on the carbonic anhydrase reaction (in words): Table 4; for effect of antibody to DNP on inhibition (in words): presence of antibody to DNP. It counts as biochemical, human. As to the method: as §1, §1
(4) Antibody to Dinitrophenyl (DNP) Reagent - Antisera raised against DNP was chromatographed at 4° C. on a 5 × 70 cm column of Sephadex G-200 (Pharmacia AB, Uppsala, Sweden) with 0.1 M Tris-HCl buffer, pH 8.2, containing 1 M sodium chloride.

Assay [16] has as its system lysine aspartokinase. Also noted: key: inhibitory or negative effectors are indicated by (-); stimulatory or positive effectors are indicated by (+). Conditions: E. coli; cited from earlier work.
In assay [17] the test system is L-threonine deaminase. Also noted: key: inhibitory or negative effectors are indicated by (-); stimulatory or positive effectors are indicated by (+). Conditions: C. tetanomorphum; cited from earlier work.
For assay [18], the system named is NAD-isocitric dehydrogenase. Also noted: key: inhibitory or negative effectors are indicated by (-); stimulatory or positive effectors are indicated by (+). The note with it: yeast; cited from earlier work.
Assay [19] relates to fructose-1,6-diphosphatase. Further details: key: inhibitory or negative effectors are indicated by (-); stimulatory or positive effectors are indicated by (+). Conditions: frog muscle and rat liver; cited from earlier work.
The test system of assay [20] is acetolactate synthetase. Further details: key: inhibitory or negative effectors are indicated by (-); stimulatory or positive effectors are indicated by (+). The note with it: E. coli; cited from earlier work.

As for `N[C@@H](Cc1cc(I)c(Oc2cc(I)c(O)c(I)c2)c(I)c1)C(=O)O` [thyroxine], the “allosteric effector: inhibitory (-) or stimulatory (+)” value (“allosteric effector: inhibitory” below) in assay [1] is given as “-”.

Take `Nc1nc2c(ncn2[C@@H]2O[C@H](COP(=O)(O)OP(=O)(O)OP(=O)(O)O)[C@@H](O)[C@H]2O)c(=O)[nH]1` [GTP, guanosine triphosphate]: the “allosteric effector: inhibitory” value in assay [1] is on record as “-”.

As to `O=C(O)CC(O)(CC(=O)O)C(=O)O` [citrate], the “allosteric effector: inhibitory” value in [2] was “+”.

Turning to `CC(=O)N[C@H]1[C@H]([C@H](O)[C@H](O)CO)OC(OP(=O)(O)OC[C@H]2O[C@@H](n3ccc(N)nc3=O)[C@H](O)[C@@H]2O)(C(=O)O)C[C@@H]1O` (stereo partly drawn) [cytosine monophosphate (CMP)-N-acetyl-neuraminic acid], the “allosteric effector: inhibitory” value in assay [3] is listed as “-”.

For `O=C(O)CCCC[C@@H]1SC[C@@H]2NC(=O)N[C@@H]21` [biotin], the “relation of rate of hydrolysis to biotin (in words)” value in assay [4] (mixtures 8, 10 and 11) is “inversely related to the amount present”.

On to `Clc1nc(Cl)c2[nH]c(Cl)nc2n1` [2,6,8-trichloropurine, 2,6,8-Trichloropurine], for which, in [5], the Ki is approximately 1 µM.

With `Nc1ccn([C@H]2C[C@H](O)[C@@H](COP(=O)(O)OP(=O)(O)O)O2)c(=O)n1` [dCDP, deoxycytosine diphosphate], the “allosteric effector: inhibitory” value in [6] was “+”.

On to `CC[C@H](C)[C@H](N)C(=O)O` [L-isoleucine], for which the “allosteric effector: inhibitory” value in assay [7] is reported as “-”; in assay [8], “+”.

As to `Nc1ncnc2c1ncn2[C@@H]1O[C@H](COP(=O)(O)OP(=O)(O)OP(=O)(O)O)[C@@H](O)[C@H]1O` [ATP, adenosine triphosphate], the “allosteric effector: inhibitory” value in [9] is on record as “+”; in assay [10], “-”; in assay [1] it was “-”; in [11], “-”.

`CC(C)C[C@H](N)C(=O)O` [leucine]: the “allosteric effector: inhibitory” value in [1] was “+”.

Turning to `CSCC[C@H](N)C(=O)O` [methionine], the “allosteric effector: inhibitory” value in assay [1] was “+”.

As for `CN(C(=O)Oc1cccc([N+](C)(C)C)c1)c1ccc(N)cc1` [N-methyl-N-(p-aminophenyl) carbamate ester of m-(trimethylamino) phenol], the “inhibition of acetylcholinesterase (in words)” value in [12] is on record as “inhibited”.

Consider `Nc1ccn([C@H]2C[C@H](O)[C@@H](COP(=O)(O)OP(=O)(O)OP(=O)(O)O)O2)c(=O)n1` [dCTP, deoxycytosine triphosphate], for which, in assay [13], the “allosteric effector: inhibitory” value was “+”.

Turning to “Avidin: Lyophilized avidin (Sigma Chemical Co., St. Louis, Mo.)”, in [14] (Table 1), the “effect of avidin on inhibition by acetazolamide (in words)” value is on record as “no significant effect on such inhibition”. Moreover, the “Hydrolysis Rate” value in [14] (avidin 0.105 units/ml, acetazolamide 0.000 μM) was 0.106 ΔOD348 /min/ml. For the same compound, in assay [4] (constant level of biotin-modulator conjugate, mixtures 2-9), the “relation of rate of enzymatic hydrolysis to avidin (in words)” value is listed as “directly related to the amount of avidin present”.

For `Cc1cn([C@H]2C[C@H](O)[C@@H](COP(=O)(O)OP(=O)(O)OP(=O)(O)O)O2)c(=O)[nH]c1=O` [dTTP, deoxythymidine triphosphate], the “allosteric effector: inhibitory” value in assay [13] and in [6] was “-” throughout.

For the compound `CC(=O)Nc1nnc(S(N)(=O)=O)s1` [Acetazolamide, 2-Acetylamino-1,3,4-thiadiazole-5-sulfonamide], the “inhibition of carbonic anhydrase (in words)” value in assay [14] (Table 1) is recorded as “inhibited the enzyme carbonic anhydrase”. The “Hydrolysis Rate” value is given as 0.089 ΔOD348 /min/ml in assay [14] (acetazolamide 0.144 μM with avidin 0.105 units/ml); 0.088 ΔOD348 /min/ml in assay [14] (acetazolamide 0.144 μM, no avidin); 0.047 ΔOD348 /min/ml in [14] (acetazolamide 0.288 μM, no avidin). Also, the “effect on the carbonic anhydrase reaction (in words)” value in assay [15] is recorded as “inhibited the carbonic anhydrase reaction”. The “Rate of Hydrolysis” value in [15] (acetazolamide 0.216 μM with antibody to DNP 100 .infin.l/ml, mixture 3) is 0.091 Increase in Absorbance per min at 348 nm; in assay [15] (acetazolamide 0.216 μM, no antibody, mixture 5), 0.088 Increase in Absorbance per min at 348 nm. Besides, the “effect of antibody to DNP on inhibition (in words)” value in assay [15] is given as “substantially unaffected by the presence of antibody to DNP”.

On to `O=C(O)CCCCCNc1ccc([N+](=O)[O-])cc1[N+](=O)[O-]` [N-DNP-6-aminocaproate], for which the “Rate of Hydrolysis” value in [15] (N-DNP-6-aminocaproate 1.8 μM alone, no antibody, mixture 6) is 0.154 Increase in Absorbance per min at 348 nm. In assay [15], the “effect on the carbonic anhydrase reaction (in words)” value is on record as “no substantial effect on the carbonic anhydrase reaction”. Further, the “effect of DNP derivative on inhibition by DNP-modulator conjugate (in words)” value in [15] (mixtures 2 and 7, antibody to DNP present) is “increased inhibition of the carbonic anhydrase reaction by the DNP-modulator conjugate”.

As for `NCCCC[C@H](N)C(=O)O` [L-lysine], the “allosteric effector: inhibitory” value in assay [16] is “-”.

For `Nc1ncnc2c1ncn2[C@@H]1O[C@H](COP(=O)(O)OP(=O)(O)O)[C@@H](O)[C@H]1O` [ADP, addenosine diphosphate], the “allosteric effector: inhibitory” value in assay [17] and in assay [1] was “+” throughout.

Turning to `NS(=O)(=O)c1nnc(NC(=O)CCCCCNc2ccc([N+](=O)[O-])cc2[N+](=O)[O-])s1` [DNP-Modulator Conjugate, 6-(2,4-Dinitroanilino)-N-(5-sulfonamide-1,3,4-thiadiazo-2-yl) caproamide], the “Rate of Hydrolysis” value was 0.108 Increase in Absorbance per min at 348 nm in assay [15] (DNP-modulator conjugate 0.278 μM with antibody to DNP 100 .infin.l/ml, mixture 2); 0.098 Increase in Absorbance per min at 348 nm in [15] (DNP-modulator conjugate 0.278 μM, N-DNP-6-aminocaproate 1.8 μM, antibody to DNP 100 .infin.l/ml, mixture 7); 0.074 Increase in Absorbance per min at 348 nm in [15] (DNP-modulator conjugate 0.278 μM, no antibody, mixture 4). Besides, the “effect on the carbonic anhydrase reaction (in words)” value in assay [15] is on record as “inhibited the carbonic anhydrase reaction”. For the same compound, in assay [15], the “effect of antibody to DNP on inhibition (in words)” value was “degree of inhibition being decreased by the presence of antibody to DNP”.

For `NC(=O)C1=CN([C@@H]2O[C@H](COP(=O)(O)OP(=O)(O)OC[C@H]3O[C@@H](n4cnc5c(N)ncnc54)[C@H](O)[C@@H]3O)[C@@H](O)[C@H]2O)C=CC1` [reduced NAD], the “allosteric effector: inhibitory” value in assay [1] is on record as “-”.

As for `Nc1ccn([C@@H]2O[C@H](COP(=O)(O)OP(=O)(O)OP(=O)(O)O)[C@@H](O)[C@H]2O)c(=O)n1` [CTP, cytosine triphosphate], the “allosteric effector: inhibitory” value in assay [9] is recorded as “-”.

Take `C[N+](C)(C)c1ccccc1` [phenyl trimethylammonium ion]: in assay [12] (approximation, competitive inhibitor, read-out: inhibitor constant (Ki)), the Ki is approximately 1 µM.

Turning to `Nc1ncnc2c1ncn2[C@@H]1O[C@H](COP(=O)(O)O)[C@@H](O)[C@H]1O` [5'-AMP], the “allosteric effector: inhibitory” value in assay [18] was “+”; in [11], “+”; in assay [19] it was “-”.

As to `CSCC[C@H](N)C(=O)O` [L-methionine], the “allosteric effector: inhibitory” value in assay [8] is reported as “+”.

Consider `CC(C)[C@H](N)C(=O)O` [L-valine], for which the “allosteric effector: inhibitory” value in [7] and in assay [20] was “+” in each case.

For the compound `C[N+](C)(C)c1ccc(N)cc1` [p-aminophenyl trimethylammonium ion], the “inhibition of acetylcholinesterase (in words)” value in [12] is reported as “inhibited”.
